Laboratory results taken from patent publication US6521645B2, “Methods for the treatment and prevention of urinary stone disease” (The University of Kansas Medical Center, priority 2000, dated 2003).
Where two headings read alike, the source gives them in different places.

Assays:
[1] = cited from earlier work
[2] = Body weight, behavior and water consumption of pyridoxamine-treated rats; assay type: in vivo, Sprague-Dawley rats
Procedure: (§1) Two month old Sprague-Dawley rats were housed individually in metabolic cages and fed standard powdered stock rations. […] To minimize possible chemical degradation of pyridoxamine, fresh solutions were prepared daily and administered in water bottles wrapped in aluminum foil.

[3] = diabetic rat model, 7 months, same dose; cited from earlier work
oxalate oxidase = biological target: T1, oxalate oxidase (Hordeum vulgare, UniProt P45850); experiment: Interference of pyridoxamine with urinary oxalate determination by oxalate oxidase method; design: species or system Barley; conditions: pyridoxamine added to assay mixtures, final concentration 2 mg/ml
T1 construct: Oxalate oxidase from Barley seedlings was purchased from Sigma Co; purchased Sigma Co. (St. Louis, Mo.); host or cells: barley seedlings (natural source)
T1 sequence (P45850 1-201): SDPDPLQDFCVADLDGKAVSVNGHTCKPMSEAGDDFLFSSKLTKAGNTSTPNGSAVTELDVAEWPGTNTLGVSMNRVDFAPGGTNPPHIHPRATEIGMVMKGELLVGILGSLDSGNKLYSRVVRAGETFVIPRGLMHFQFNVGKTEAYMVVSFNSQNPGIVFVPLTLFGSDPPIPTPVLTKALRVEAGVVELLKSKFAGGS
Procedure: Twenty-four hour urine samples were collected under toluene (to inhibit bacterial growth) using containers with 2 M hydrochloric acid to minimize spontaneous breakdown of urinary ascorbic acid to oxalate (21). The urine samples were stored at −70° C. until further analysis. […] Collected urine samples were analyzed to determine concentrations of oxalate using the oxalate oxidase method (23). This assay is highly specific and sensitive to about 10 μM (23). […] The method is based on the conversion of oxalate to hydrogen peroxide and carbon dioxide by oxalate oxidase. The latter was determined enzymatically with horseradish peroxidase by oxidative coupling of 3-methyl-2-benzothiazolinone hydrazone with N,N-dimethylaniline. The resulting colored product was determined spectrophotometrically at 595 nm. The modified sample preparation procedure was used, which replaces column chromatography with a simple precipitation step (24).

[4] = Urinary oxalate excretion in pyridoxamine-treated rats (oxalate oxidase method); assay type: in vivo, Sprague-Dawley rats; conditions: pyridoxamine in drinking water, 1.2 μm/day/gram body weight
Procedure: as §1
Twenty-four hour urine samples were collected under toluene (to inhibit bacterial growth) using containers with 2 M hydrochloric acid to minimize spontaneous breakdown of urinary ascorbic acid to oxalate (21). The urine samples were stored at −70° C. until further analysis. Under these conditions, frozen urine can be stored for at least 1 month with no effect on oxalate measurements (22). Collected urine samples were analyzed to determine concentrations of oxalate using the oxalate oxidase method (23). This assay is highly specific and sensitive to about 10 μM (23). Oxalate oxidase from Barley seedlings was purchased from Sigma Co. (St. Louis, Mo.). The method is based on the conversion of oxalate to hydrogen peroxide and carbon dioxide by oxalate oxidase. […] was determined enzymatically with horseradish peroxidase by oxidative coupling of 3-methyl-2-benzothiazolinone hydrazone with N,N-dimethylaniline. The resulting colored product was determined spectrophotometrically at 595 nm. The modified sample preparation procedure was used, which replaces column chromatography with a simple precipitation step (24).

[5] = Ethylene glycol (EG) rat model of experimental hyperoxaluria; assay type: in vivo; conditions: rats given EG […] solution in drinking water; predicted result
Excerpt: Both compounds are precursors of oxalate synthesis and their administration results in increased urinary oxalate concentration. […] The use of two different models also helps to minimize possible model-specific adverse effects. […] The results for Day-14 oxalate are known by Day 15, at which time the animals within each group (Control, EG) are pair-matched according to their Day-14 oxalate. The pyridoxamine and no-pyridoxamine groups therefore begin the pyridoxamine-treatment period with nearly identical mean and standard deviation oxalate excretion, which optimizes the sensitivity of this experimental design.

[6] = cited from earlier work; remark: listed apart in the source
[7] = rat model of hyperoxaluria; cited from earlier work

For `Cc1ncc(CO)c(CO)c1O` [pyridoxine], the urinary oxalate levels ([1]; stone formers, 200 mg daily) is listed as “did not reduce” and the “risk of kidney stone formation” value ([1]; women, 40 mg/day) is listed as “reduced risk”.
With `Cc1ncc(CO)c(CN)c1O.Cl.Cl` [pyridoxamine, Pyridoxamine dihydrochloride] the “general behavior versus control group” value [2] was “no difference”, the “weight gain versus control group” value [2] was “no difference” and the Weight ([2]; Day 1) was 315 ± 6 grams. The Weight ([2]; Day 26) was 363 ± 16 grams, the “therapeutic effect of the dose” value [3] was “had therapeutic effects” and the “effect on oxalate measurements” value (oxalate oxidase) was “no effect”. The “statistical significance of the urinary oxalate difference from controls” value [4] was “statistically different from controls after 12 days”, the “urinary oxalate levels versus controls” value [4] was “consistently lower” and the oxalate excretion [5] was “significantly reduce”.
For `O=C1N[C@H](C(=O)O)CS1` [OTZ, (L)-2-oxothiazolidine-4-carboxylate], the urinary oxalate levels ([6]; normal individuals) is given as “decreased”, the adverse effects ([6]; patients, administered for only 48 hours) is given as “mild to moderate adverse effects” and the urinary oxalate concentration [7] is given as “decrease”.
